For one assay, the system named is atopic dermatitis. The conditions noted are these: Japanese Patent Application Laid-open No. Hei 11-255656; cited from earlier work.
For the next assay, the system named is IgE. The conditions noted are these: Japanese Patent Application Laid-open No. 2001-288093; cited from earlier work.
In assay [1] the test system is dermatitis induced by repeated application of hapten on an NC/Nga mouse. Description: Performance Evaluation Test 1: dermatitis induced by repeated application of hapten (PiCl) on NC/Nga mice. The format is in vivo, NC/Nga Tnd Crj male mice. The conditions noted are these: 0.5% in AIN93G feed; for score of dermatitis (progress of the atopic dermatitis): PiCl induction once a week for five weeks, vs control group, FIGS. 1 and 2. The protocol: The performance of stachyose mixed in livestock feeds was evaluated against the dermatitis induced by repeated application of hapten on an NC/Nga mouse frequently used as an atopic dermatitis model animal (M. Okada et al., Oyo Yakuri/Pharmcometrics, vol. 59, 135–139 (2000)).
(§1) NC/Nga Tnd Crj male mice at six weeks of age (purchased from Nihon Charles River) were habituated for two weeks. The animals decided as healthy were used for the experiments after an observation of general conditions and body weight measurement. The mice were divided into three groups so that the body weight was averaged. One group was composed of nine mice. A purified livestock feed (AIN93G produced by Oriental Yeast Co.) was used as a basic feed. The mice in Group 1 (a control group) was fed with the purified feed, while the mice in Groups 2 and 3 were fed with a feed prepared by adding the test samples as shown In Table 1 in the basic feed.
Stachyose used in this test was purified to a purity of 98% by ion exchange chromatography after extracting from soybeans with 70% ethanol. Saccharose used in this test was purchased from Wako Junyaku Kabushiki Kaisha.
The mice at eight weeks of age were used for sensation as follows. […]
The symptoms of the atopic dermatitis were observed as follows. The skin condition was observed twice a week starting from a day before the first induction, and the following items were evaluated based on the criteria of clinical syndromes of the human atopic dermatitis. […]
(§2) The score of dermatitis, serum total IgE concentration, and the average body weight and standard deviation thereof were calculated. The significant difference was evaluated by the Student's t-test. A significance level of 5% was evaluated as significant, and the results of the Student's t-test were expressed by dividing into a level of less than 5% (P<0.05) and less than 1% (P<0.01).

The next assay has as its system serum total IgE. Description: Serum total IgE concentration by EIA in PiCl-sensitized NC/Nga mice. In kind it is in vivo, NC/Nga Tnd Crj male mice. The conditions noted are these: 0.5% in AIN93G feed; blood on 43rd day after administration; vs control group; FIG. 4.
Description: as §1
The serum total IgE concentration was measured as follows. The blood was extracted on day four before administration, and on 43 rd day after administration (the day for starting administration is counted as the first day). The blood (200 μL) is sampled from the orbital plexus venosus using a heparinated capillary. […]
as §2

Assay [2] deals with conventional grade NC/Nga mice that spontaneously start the atopic dermatitis. As to the kind of experiment: Performance Evaluation Test 2: spontaneous atopic dermatitis in conventional grade NC/Nga mice. The format is in vivo, Conventional grade female NC/Nga mice. The conditions noted are these: feed supplemented with 1% stachyose. The text has this:
The effect of stachyose on the dermatitis was investigated using conventional grade NC/Nga mice that spontaneously start the atopic dermatitis without applying any haptens (H. Matsuda et al., International Immunology, vol. 9, 461–466 (1997)).
Conventional grade female NC/Nga mice at four weeks of age (purchased from Nihon SLC) were habituated for one week. The mice were divided into two groups so that the body weight was averaged. One group was composed of six mice. All the mice were freely fed on the purified livestock feed (AIN93G) before grouping, and the stachyose administration group was fed on a feed supplemented with 1% stachyose after grouping. The skin conditions were observed and evaluated once per two weeks from the day of start of grouping. The evaluation method was the same as in performance evaluation method 1.

In the case of `OC[C@H]1O[C@H](OC[C@H]2O[C@H](O[C@]3(CO)O[C@H](CO)[C@@H](O)[C@@H]3O)[C@H](O)[C@@H](O)[C@@H]2O)[C@H](O)[C@@H](O)[C@H]1O` [raffinose], the anti-atopic dermatitis action entry in the assay with atopic dermatitis is reported as “has an anti-atopic dermatitis action”. Moreover, the “production of IgE” value in the assay on IgE is reported as “has an action for suppressing production of IgE”.

As for `OC[C@H]1O[C@@](CO)(O[C@H]2O[C@H](CO)[C@@H](O)[C@H](O)[C@H]2O)[C@@H](O)[C@@H]1O` [saccharose, reference compound], in assay [1], the “score of dermatitis (progress of the atopic dermatitis)” value is “No effects were observed”.

On to `OC[C@H]1O[C@H](OC[C@H]2O[C@H](OC[C@H]3O[C@H](O[C@]4(CO)O[C@H](CO)[C@@H](O)[C@@H]4O)[C@H](O)[C@@H](O)[C@@H]3O)[C@H](O)[C@@H](O)[C@H]2O)[C@H](O)[C@@H](O)[C@H]1O` [stachyose], for which the “score of dermatitis (progress of the atopic dermatitis)” value in assay [1] was “progress of the atopic dermatitis was evidently blocked”. Besides, the “appearance of the skin (photograph of representative mouse)” value in assay [1] (compared with the control group (Group 1), FIG. 3) is listed as “An evident difference of the appearance of the skin was observed”. Further, the “level of serum total IgE” value in the assay with serum total IgE is on record as “does not influence the level of IgE”. Moreover, the onset of dermatitis entry in assay [2] (6 to 8 weeks after grouping, control: evident dermatitis on face and ears) is “no onset of dermatitis was observed at all”; in assay [2] (week four after grouping, control: five of six mice with dermatitis on the face), “no onset of the dermatitis was observed”. Moreover, in assay [2] (FIG. 5), the scores of dermatitis entry was “the effect of stachyose is evident”.

(Values after US7166582B2, “Antiallergic composition” (J-Oil Mills, Inc., priority 2003, dated 2007).)
